This is an account of results in publication PMC12838644, “Dihydrotanshinone as a Natural Product-Based CYP17A1 Lyase Inhibitor for Hyperandrogenic Disorders” (Biomolecules, 2026).

The target of one experiment is T1, CYP17A1 17α-hydroxylase (Homo sapiens, UniProt P05093).
T1 sequence (P05093 1-508): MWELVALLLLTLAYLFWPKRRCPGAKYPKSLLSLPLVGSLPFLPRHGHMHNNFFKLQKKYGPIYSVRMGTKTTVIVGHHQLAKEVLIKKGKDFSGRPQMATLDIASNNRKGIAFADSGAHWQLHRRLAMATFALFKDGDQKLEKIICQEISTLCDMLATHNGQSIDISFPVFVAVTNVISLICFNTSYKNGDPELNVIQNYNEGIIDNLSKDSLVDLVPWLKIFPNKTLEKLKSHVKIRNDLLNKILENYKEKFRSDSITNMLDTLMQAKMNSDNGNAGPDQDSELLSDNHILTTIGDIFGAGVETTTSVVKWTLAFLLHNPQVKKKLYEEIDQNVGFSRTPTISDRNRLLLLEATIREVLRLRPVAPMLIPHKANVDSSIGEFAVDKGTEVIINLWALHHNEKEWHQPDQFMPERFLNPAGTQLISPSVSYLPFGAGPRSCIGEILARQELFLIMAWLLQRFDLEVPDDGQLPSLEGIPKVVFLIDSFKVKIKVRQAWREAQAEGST
The experiment is described as follows: CYP17A1 17α-hydroxylase activity assay (progesterone to 17OH-progesterone, reconstituted POR/CYP17A1). It counts as biochemical. Particulars: 10 µM (SM extract 10 µg/mL). Here is the method:
(§1) Assay of CYP17A1 17α-hydroxylase and 17,20-lyase activities were performed as described previously. The 17α-hydroxylase activity was measured by conversion of progesterone to 17OH-progesterone, while production of DHEA from 17OH-pregnenolone was used for monitoring the 17,20-lyase activity of CYP17A1. In vitro CYP17A1 assays were performed using a liposome system consisting of human p450 oxidoreductase (POR) and CYP17A1 at a ratio of 3:4 (POR: CYP17A1). The final assay mixture consisted of proteins (37.5 nmol POR: 50 nmol CYP17A1), 10 mM MgCl2, 6 mM potassium acetate (KOAc), 0.05 mg/mL DLPC,1 mM reduced Glutathione in 50 mM HEPES-NaOH buffer (pH 7.4), and the reaction volume was 200 μL. The drugs were added to the final mixture and incubated for 1h before the catalytic reaction was initiated by the addition of NADPH to 1 mM final concentration. Radiolabeled [^14C]-progesterone (10,000 cpm in 1 µM) was used as a tracer in each reaction. Steroids were extracted and separated by thin-layer chromatography (TLC) on silica gel (SIL G/UV254) TLC plates (Macherey-Nagel, Oensingen, Switzerland) as previously described.

The next experiment addresses T2, CYP17A1 17,20-lyase (Homo sapiens, UniProt P05093).
T2 sequence (P05093 1-508): T1 sequence (P05093 1-508)
The experiment is described as follows: CYP17A1 17,20-lyase activity assay (DHEA from 17OH-pregnenolone, POR, CYP17A1 and cytochrome b5). The experiment is classed as biochemical. The method, then:
as §1, with “The final assay mixture consisted of proteins (37.5 nmol POR: 50 nmol CYP17A1), 10 mM MgCl2, 6 mM potassium acetate (KOAc), 0.05 mg/mL DLPC,1 mM reduced Glutathione in 50 mM HEPES-NaOH buffer (pH 7.4), and the reaction volume was 200 μL.” left out
In vitro CYP17A1 17,20-lyase activity assays were performed using POR, CYP17A1 and cytochrome b5 as described previously. The final assay mixture consisted of proteins, 10 mM MgCl2, 6 mM KOAc, 0.05 mg/mL DLPC, 1 mM reduced glutathione in 50 mM HEPES-NaOH buffer (pH 7.4), and the reaction volume was 200 μL. The drugs were added to the final mixture and incubated for 1h before the catalytic reaction was initiated by the addition of NADPH to 1 mM final concentration. Radiolabeled [^3H]-17OH-pregnenolone (50,000 cpm in 1 µM) was added as a tracer and the enzyme activity was measured by using the scintillation counter in the water release assay.

For a further experiment, the target named is T3, CYP21A2 (Homo sapiens, UniProt P08686).
T3 construct: expressed in transfected cells; host or cells: HEK293 / HEK-293T
T3 sequence (P08686 1-495): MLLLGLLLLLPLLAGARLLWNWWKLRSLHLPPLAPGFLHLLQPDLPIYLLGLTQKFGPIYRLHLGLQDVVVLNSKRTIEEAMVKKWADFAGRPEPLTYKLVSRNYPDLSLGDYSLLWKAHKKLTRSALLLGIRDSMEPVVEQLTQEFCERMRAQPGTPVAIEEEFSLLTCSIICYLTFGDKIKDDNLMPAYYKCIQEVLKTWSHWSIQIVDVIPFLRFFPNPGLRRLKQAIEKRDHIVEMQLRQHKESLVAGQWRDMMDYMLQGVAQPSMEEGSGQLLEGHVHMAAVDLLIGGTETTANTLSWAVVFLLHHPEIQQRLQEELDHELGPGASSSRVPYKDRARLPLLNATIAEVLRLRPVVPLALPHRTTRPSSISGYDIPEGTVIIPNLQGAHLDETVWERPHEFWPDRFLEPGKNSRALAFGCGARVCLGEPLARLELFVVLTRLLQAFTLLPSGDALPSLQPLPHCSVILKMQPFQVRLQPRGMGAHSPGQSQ
The experiment is described as follows: CYP21A2 activity assay in transiently transfected HEK-293T cells. The experiment is classed as cell-based. Particulars: transfected HEK-293T cells. The method, then: Transient transfections were performed using the CYP21A2 WT vector as described previously. HEK293 cells were seeded in six-well plates (3 × 10^5 cells/well). After 24 h, the growth medium was replaced, and cells were transfected using Lipofectamine 2000 (Thermo Fisher Scientific, Bedford, MA, USA) with 12.5 µg of plasmid (plasmid concentration: 1068 µg/mL). Twenty-four hours after transfection, transfected cells were replated in 24-well plates (1.5 × 10^5 cells/well) to ensure homogeneity of the cell population across the wells. Six hours after transfection, 2 mL of fresh medium was replaced, and the cells were cultured for 48 h. Cell growth was examined. […] DMSO was added to the negative control, and 10 µM abiraterone was added to the positive control, and the cells were incubated for 4 h. Functional assays were initiated by adding 1 µM unlabeled progesterone (using 10,000 cpm of [^14C]-progesterone as a tracer). After incubation at 37 °C for 1 h, the culture medium and cells were harvested. Steroids were extracted from the culture medium with ethyl acetate and isooctane (1:1 volume ratio), dried, and dissolved in dichloromethane. Steroids were separated by thin-layer chromatography (TLC), placed on a phosphor screen, and visualized using a Typhoon PhosphorImager FLA-7000 (GE Healthcare Bio-Sciences AB, Uppsala, Sweden). Image intensity was measured and quantified using ImageQuant TL v8 (Cytiva, Marlborough, MA, USA). The CYP21A2 enzyme activity was expressed as relative steroid conversion. Steroids were quantified as a percentage of radioactivity incorporated into […] to the total radioactivity measured in the whole sample and compared between the WT and variants. Cells were collected with trypsin and washed with 1× PBS to quantify the amount of protein. Results were analyzed from three technical replicates. To ensure a similar amount of CYP21A2 in each reaction, a Western blot analysis was performed to normalize the enzyme activity with the relative CYP21A2 expression.

Turning to `C[C@]12CC[C@H](O)CC1=CC[C@@H]1[C@@H]2CC[C@]2(C)C(c3cccnc3)=CC[C@@H]12` [Abiraterone, abiraterone, reference compound], the inhibition at 10 µM at CYP17A1 17α-hydroxylase (calculated as 100% − % residual activity, read-out: % Inhibition CYP17A1-OH) was 94.7%; at CYP17A1 17,20-lyase (10 µM (SM extract 10 µg/mL), calculated as 100% − % residual activity, read-out: % Inhibition CYP17A1-Lyase), 69.6%; on CYP21A2 (10 µM (SM extract 10 µg/mL), calculated as 100% − % residual activity, read-out: % Inhibition CYP21A2) it was 29.8%. Besides, at CYP17A1 17α-hydroxylase (% of DMSO control), the “Residual 17α-hydroxylase activity” value is on record as 5.3%. Besides, the “Residual 17,20-lyase activity” value on CYP17A1 17,20-lyase (% of DMSO control, 10 µM (SM extract 10 µg/mL)) worked out at 30%. The “Lyase/CYP21A2 Selectivity Index” value on CYP17A1 17,20-lyase ((% Inhibition Lyase)/(% Inhibition CYP21A2) at 10 µM (SM 10 µg/mL)) amounted to 2.34. Further, at CYP17A1 17,20-lyase ((% Inhibition Lyase)/(% Inhibition OH) at 10 µM (SM 10 µg/mL)), the “Lyase/OH Selectivity Index” value turned out to be 0.73. For the same compound, at CYP21A2 (% of DMSO control, 10 µM), the “Residual CYP21A2 activity” value was determined as 70%.
